This is an account of results in paper PMC11358443, “Polymodal K^+ channel modulation contributes to dual analgesic and anti-inflammatory actions of traditional botanical medicines” (Communications Biology, 2024).

Usually EC50 stands for the concentration giving half of the maximal effect. By IC50 is commonly meant the point on the concentration scale where inhibition reaches its midpoint. Usually cell viability stands for a read-out of living cells in per cent, often relative to untreated cells. The low end stands for a greater loss of cells, the high end for better survival.

Values joined by “and” are separate entries in the source; they are usually repeats but may differ in a detail not shown here. Identical values can stand only once.

In one series the target is T1, TREK-1 (KCNK2) (Homo sapiens, UniProt O95069).
T1 sequence (O95069 1-426): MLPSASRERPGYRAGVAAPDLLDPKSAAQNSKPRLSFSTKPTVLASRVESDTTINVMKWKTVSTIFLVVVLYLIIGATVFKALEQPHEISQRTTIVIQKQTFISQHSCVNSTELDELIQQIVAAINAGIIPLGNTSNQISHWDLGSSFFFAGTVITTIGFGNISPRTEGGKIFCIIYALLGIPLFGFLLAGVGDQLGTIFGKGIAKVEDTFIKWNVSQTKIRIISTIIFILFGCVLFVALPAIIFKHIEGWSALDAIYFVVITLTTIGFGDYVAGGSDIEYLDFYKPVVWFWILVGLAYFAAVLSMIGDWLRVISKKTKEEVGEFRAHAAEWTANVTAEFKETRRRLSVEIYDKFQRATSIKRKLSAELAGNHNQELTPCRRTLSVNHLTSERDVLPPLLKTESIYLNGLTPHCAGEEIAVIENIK
The experiment in a line: TEVC electrophysiology, Xenopus oocytes expressing TREK-1. In kind it is cell-based. How it is done:
We generated human potassium channel cRNA transcripts with the mMessage mMachine kit (Thermo Fisher Scientific, Waltham, MA, USA) according to manufacturer’s instructions, after vector linearization, from cDNA sub-cloned into expression vectors (pTLNx, pXOOM and pMAX). We injected Xenopus laevis oocytes (Xenoocyte, Dexter, MI, USA) with the channel cRNAs (0.5–10 ng) and incubated the oocytes at 16 °C for 1–4 days prior to electrophysiological recording.
We performed TEVC at 20–23 °C with an OC-725C amplifier (Warner Instruments, Hamden, CT, USA) and pClamp10 software. Chemicals for recording and oocyte storage solutions were from Sigma-Aldrich (St. Louis, MO). Bath solution contained (in mM): 96 NaCl, 4 KCl, 1 MgCl2, 1 CaCl2, 10 HEPES (pH 7.6). Pipettes were 1–2 MΩ resistance when filled with 3 M KCl. We recorded currents in response to voltage pulses between −120 mV or −80 mV and +40 mV at 10 mV intervals from a holding potential of −80 mV, to yield current–voltage relationships and examine activation kinetics. We recorded and analyzed data using Clampfit (Molecular Devices, Sunnyvale, CA, USA) and Graphpad Prism software (GraphPad, San Diego, CA, USA), stating values as mean ± SEM. We calculated the voltage dependence of activation (V0.5) by measuring tail currents at a voltage pulse of −30 mV (Kv7) or −50 mV (Kv1), then fitted the tail current/voltage relationship with a single Boltzmann function:1 g=(A1−A2)/{1+exp[V1/2−V/Vs]}y+A2 where g is the normalized tail conductance, A1 is the initial value at −∞, A2 is the final value at +∞, V1/2 is the half-maximal voltage of activation and Vs the slope factor. We fitted activation and deactivation kinetics with single exponential functions.

The target of series [1] is native Kv1.3 current in activated human T-cells (Homo sapiens, UniProt P22001). The experiment in a line: Patch-clamp of native Kv1.3 current in activated human T-cells. The settings on record: approximation, underestimate of potency (saturation incomplete); read-out: IC50 for human T-cell Kv1.3 current. It is filed as cell-based.
Chain of native Kv1.3 current in activated human T-cells (P22001 whole entry): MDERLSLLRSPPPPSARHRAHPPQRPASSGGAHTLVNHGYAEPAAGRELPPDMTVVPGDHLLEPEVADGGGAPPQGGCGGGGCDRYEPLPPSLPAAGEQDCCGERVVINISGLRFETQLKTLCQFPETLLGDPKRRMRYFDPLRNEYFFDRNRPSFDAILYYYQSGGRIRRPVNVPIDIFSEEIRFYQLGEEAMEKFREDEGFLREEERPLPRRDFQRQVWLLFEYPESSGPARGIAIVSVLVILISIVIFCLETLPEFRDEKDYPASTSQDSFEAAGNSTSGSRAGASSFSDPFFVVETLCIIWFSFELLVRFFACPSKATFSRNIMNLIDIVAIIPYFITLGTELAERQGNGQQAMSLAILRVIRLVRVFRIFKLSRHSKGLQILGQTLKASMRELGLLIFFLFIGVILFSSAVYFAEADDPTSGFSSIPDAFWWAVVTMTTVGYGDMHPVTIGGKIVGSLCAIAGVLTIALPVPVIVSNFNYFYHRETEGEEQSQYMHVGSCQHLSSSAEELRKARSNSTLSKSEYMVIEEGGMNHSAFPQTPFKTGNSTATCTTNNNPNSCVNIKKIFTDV
Method: Human CD4+ T cells from frozen PBMCs ([sequence] Technologies) were isolated with EasySep negative isolation kit ([sequence] Technologies, cat. #17952) according to manufacturers’ protocols. After isolation cells were plated on anti-CD3 (BioLegend, clone OKT3, 2.5 μg/ml), anti-CD28 (BioLegend, clone CD28.2, 2.5 μg/ml)-coated 6-well plate dish at 1.5 × 10^6 cells/well in 3 ml RPMI medium (Gibco) supplemented with 10% FBS (Omega Scientific), 1% L-glutamine (Gibco), 1% non-essential amino acids (Gibco), 1% sodium pyruvate (Gibco), 1% penicillin–streptomycin–amphotericin B (Gibco) and 50 µM, β-mercaptoethanol (Sigma), 30 U/ml recombinant human IL-2 (BioLegend, cat. #589102). Cells were incubated during 48–144 h in 5% CO2 + 95% O2 atmosphere at 37 °C, harvested and plated on poly-lysine coated coverslips; 30–60 min later cells were used in the experiment.
We performed patch clamp experiments at 20–23 °C, acquiring data with an EPC9 patch clamp amplifier (HEKA), a 5 kHz sampling rate and digitally filtering at 1–2 kHz. […] The Kv1.3 currents were recorded in response to 600 ms step pulse from holding potential −80 mV to +40 mV acquired every 30 s. […] The recorded currents were analyzed with Patch Master (HEKA Electronics) and Origin Pro (Origin Lab).
In the next series the test system is human CD4 T cells. The experiment in a line: Human CD4 T cell proliferation assay (CFSE dilution, viability dye). It is filed as cell-based. The settings on record: 96 h. From the text: Whole blood from de-identified healthy donors, from whom informed consent was obtained, was obtained from the Institute for Clinical and Translational Science (ICTS) research Blood Donor Program at the University of California, Irvine approved and reviewed by the Institutional Review Boards of UCI (IRB protocol HS #2001-2058). All ethical regulations relevant to human research participants were followed. Peripheral blood mononuclear cells (PBMC) were isolated by density gradient separation using lymphocyte separation media (Corning, Cat# 25-072-CV) and SepMate tubes (STEMCELL Technologies, Cat# 85450). Blood was first diluted (1:3) in phosphate-buffered saline (PBS) containing 2% fetal bovine serum (FPS), then overlaid on top of lymphocyte separation media (2:1). CD4+ T cells were isolated from PBMCs using magnetic separation (EasySep Human CD4+ T cell isolation kit, STEMCELL Technologies, Cat# 17952), post isolation purity is typically >95% based on CD4 and CD3 staining. Purified CD4^+ T cells were labeled with 1.6 µM of CellTrace CFSE in AIM V Serum-Free Medium (Gibco Cat# 12055-083) for 8 min[84]. CFSE labeled CD4 T cells were stimulated with anti-CD3- and anti-CD28-coated Dynabeads (Thermo Fisher Scientific, Cat# 111310) at 1:1 ratio in a round-bottom 96-well plate at 37 °C and 5% CO2 in the dark for 96 h in T cell culture medium (RPMI with 10% FCS, L-glutamine, non-essential amino acids, sodium pyruvate, β-mercaptoethanol and penn–strep with amphotericin B). On day 4 cells were stained with Fixable Viability Dye eFluor 780 (FVD-780, Thermo Fisher Scientific, Cat# 65-0865-14) in PBS for 20 min at 4 °C to identify dead cells. Cells were then washed with 1× PBS + 1% FBS twice and transferred to a round-bottom 96-deep well plate (Greiner, Cat# 07-000-119) for flow cytometry. Fluorescence intensity data were acquired using NovoCyte Quanteon (Agilent Technologies) flow cytometer. FSC files were used for gating and analysis using FlowJo analysis software (FlowJo LLC, Ashland, OR). […]

The target of another series is Kv1.1 (Homo sapiens, UniProt Q09470). More on the design: method as in PMID 33093824. Particulars: cited from earlier work.
Chain of Kv1.1 (Q09470 whole entry): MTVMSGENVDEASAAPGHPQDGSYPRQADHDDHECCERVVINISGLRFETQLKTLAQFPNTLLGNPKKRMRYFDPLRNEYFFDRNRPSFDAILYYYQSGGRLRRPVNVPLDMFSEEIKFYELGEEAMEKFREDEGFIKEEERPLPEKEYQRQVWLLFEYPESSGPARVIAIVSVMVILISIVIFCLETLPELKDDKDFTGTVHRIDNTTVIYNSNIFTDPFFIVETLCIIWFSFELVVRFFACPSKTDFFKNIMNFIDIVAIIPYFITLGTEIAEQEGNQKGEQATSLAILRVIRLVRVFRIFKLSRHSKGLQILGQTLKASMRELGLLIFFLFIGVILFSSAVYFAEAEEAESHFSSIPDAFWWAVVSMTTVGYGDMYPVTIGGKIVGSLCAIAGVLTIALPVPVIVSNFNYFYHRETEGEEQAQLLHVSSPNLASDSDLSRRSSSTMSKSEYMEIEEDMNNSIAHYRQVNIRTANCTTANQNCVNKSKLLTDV

Regarding tannic acid, the “Current at 0 (mV)” value on TREK-1 (KCNK2) (10 µM tannic acid, control 0.23 ± 0.03) is 0.44 ± 0.08; on TREK-1 (KCNK2) (50 µM tannic acid) it was 0.89 ± 0.11; at TREK-1 (KCNK2) (100 µM tannic acid), 1.37 ± 0.14; on TREK-1 (KCNK2) (250 µM tannic acid) it was 1.86 ± 0.19; on TREK-1 (KCNK2) (500 µM tannic acid), 2.22 ± 0.24. Also, the “increase in KCNK2 current” value on TREK-1 (KCNK2) (at 500 µM, 0 mV) was above 10 fold. Moreover, the EC50 on TREK-1 (KCNK2) (current fold increase at 0 mV, read-out: EC50 for KCNK2 (TREK-1) activation) turned out to be 143 ± 4 µM. Besides, the IC50 in series [1] was 3.3 ± 0.2 µM. Moreover, in the series with human CD4 T cells (mean of 9 donors), the “LD50 (viability dose–response)” value amounted to 87 µM. Also, the “IC50 for limiting T cell proliferation (division index)” value with human CD4 T cells (CD3/CD28 Dynabead stimulation, 10% FCS) was 35 µM and 35.03 µM. Also, in the series on human CD4 T cells (at 50 µM), the cell viability worked out at 76.96 ± 8.922%. The “effect on voltage dependence of Kv1.1” value at Kv1.1 is reported as “negative-shift”.
